Calls of active or inactive are those of the source. No rule for the calls is given here.
Test system: CCRIS mutagenicity, Ames/micronucleus/aberration tests
Experiment: CCRIS mutagenicity studies
[1] = Test System: AMES SALMONELLA TYPHIMURIUM, Strain/Indicator: TA98, Metabolic Activation: HAMSTER, LIVER, S-9, AROCLOR 1254 (10%), Method: PREINCUBATION
[2] = Test System: AMES SALMONELLA TYPHIMURIUM, Strain/Indicator: TA98, Metabolic Activation: NONE, Method: PREINCUBATION
[3] = Test System: AMES SALMONELLA TYPHIMURIUM, Strain/Indicator: TA98, Metabolic Activation: RAT, LIVER, S-9, AROCLOR 1254 (10%), Method: PREINCUBATION
[4] = Test System: AMES SALMONELLA TYPHIMURIUM, Strain/Indicator: TA100, Metabolic Activation: HAMSTER, LIVER, S-9, AROCLOR 1254 (10%), Method: PREINCUBATION
[5] = Test System: AMES SALMONELLA TYPHIMURIUM, Strain/Indicator: TA100, Metabolic Activation: NONE, Method: PREINCUBATION
[6] = Test System: AMES SALMONELLA TYPHIMURIUM, Strain/Indicator: TA100, Metabolic Activation: RAT, LIVER, S-9, AROCLOR 1254 (10%), Method: PREINCUBATION
[7] = Test System: AMES SALMONELLA TYPHIMURIUM, Strain/Indicator: TA1535, Metabolic Activation: HAMSTER, LIVER, S-9, AROCLOR 1254 (10%), Method: PREINCUBATION
[8] = Test System: AMES SALMONELLA TYPHIMURIUM, Strain/Indicator: TA1535, Metabolic Activation: NONE, Method: PREINCUBATION
[9] = Test System: AMES SALMONELLA TYPHIMURIUM, Strain/Indicator: TA1535, Metabolic Activation: RAT, LIVER, S-9, AROCLOR 1254 (10%), Method: PREINCUBATION
[10] = Test System: AMES SALMONELLA TYPHIMURIUM, Strain/Indicator: TA1537, Metabolic Activation: HAMSTER, LIVER, S-9, AROCLOR 1254 (10%), Method: PREINCUBATION
[11] = Test System: AMES SALMONELLA TYPHIMURIUM, Strain/Indicator: TA1537, Metabolic Activation: NONE, Method: PREINCUBATION
[12] = Test System: AMES SALMONELLA TYPHIMURIUM, Strain/Indicator: TA1537, Metabolic Activation: RAT, LIVER, S-9, AROCLOR 1254 (10%), Method: PREINCUBATION
[13] = Test System: AMES SALMONELLA TYPHIMURIUM, Strain/Indicator: TA97, Metabolic Activation: NONE, Method: PREINCUBATION

In the case of CC1CCOB(OCCC(C)OB2OCCC(C)O2)O1 (stereo not drawn), the mutagenic call (Test System: MOUSE LYMPHOMA, Strain/Indicator: L5178Y (TK+/TK-), Metabolic Activation: NONE, Method: SUSPENSION/PLATE) is reported as “inactive; negative. reevaluation of results: negative” and the mutagenic call (Test System: MOUSE LYMPHOMA, Strain/Indicator: L5178Y (TK+/TK-), Metabolic Activation: RAT, LIVER, S-9, AROCLOR 1254, Method: SUSPENSION/PLATE) is reported as “inactive; negative. reevaluation of results: negative”.

With CC1=C(C(=O)OC(C)C)C(c2cccc([N+](=O)[O-])c2)C(C(=O)OC2CN(C(c3ccccc3)c3ccccc3)C2)=C(N)N1 (stereo not drawn) the mutagenic call (Test System: AMES SALMONELLA TYPHIMURIUM, Strain/Indicator: TA98, Metabolic Activation: NONE, Method: STANDARD PLATE) was “inactive; negative”, the mutagenic call (Test System: AMES SALMONELLA TYPHIMURIUM, Strain/Indicator: TA98, Metabolic Activation: RAT LIVER S-9, Method: STANDARD PLATE) was “inactive; negative” and the mutagenic call (Test System: AMES SALMONELLA TYPHIMURIUM, Strain/Indicator: TA100, Metabolic Activation: NONE, Method: STANDARD PLATE) was “inactive; negative”. For the same molecule, the mutagenic call (Test System: AMES SALMONELLA TYPHIMURIUM, Strain/Indicator: TA100, Metabolic Activation: RAT LIVER S-9, Method: STANDARD PLATE) was “inactive; negative”, the mutagenic call (Test System: AMES SALMONELLA TYPHIMURIUM, Strain/Indicator: TA1535, Metabolic Activation: NONE, Method: STANDARD PLATE) was “inactive; negative” and the mutagenic call (Test System: AMES SALMONELLA TYPHIMURIUM, Strain/Indicator: TA1535, Metabolic Activation: RAT LIVER S-9, Method: STANDARD PLATE) was “inactive; negative”. The mutagenic call (Test System: AMES SALMONELLA TYPHIMURIUM, Strain/Indicator: TA1537, Metabolic Activation: NONE, Method: STANDARD PLATE) was “inactive; negative”, the mutagenic call (Test System: AMES SALMONELLA TYPHIMURIUM, Strain/Indicator: TA1537, Metabolic Activation: RAT LIVER S-9, Method: STANDARD PLATE) was “inactive; negative” and the mutagenic call (Test System: E.COLI, Strain/Indicator: WP2 UVRA, Metabolic Activation: NONE, Method: STANDARD PLATE) was “inactive; negative”. For the same molecule, the mutagenic call (Test System: E.COLI, Strain/Indicator: WP2 UVRA, Metabolic Activation: RAT LIVER S-9, Method: STANDARD PLATE) was “inactive; negative”.

For Cc1c(C)c(Br)c(Br)c(Br)c1Br, the mutagenic call [1] was “inactive; negative”, the mutagenic call [2] was “inactive; negative” and the mutagenic call [3] was “inactive; negative”. For the same molecule, the mutagenic call [4] was “inactive; negative”, the mutagenic call [5] was “inactive; negative” and the mutagenic call [6] was “inactive; negative”. The mutagenic call [7] was “inactive; negative”, the mutagenic call [8] was “inactive; negative” and the mutagenic call [9] was “inactive; negative”. The mutagenic call [10] was “inactive; negative”, the mutagenic call [11] was “inactive; negative” and the mutagenic call [12] was “inactive; negative”.

With O=c1ccc(=O)c2c(=O)c(Cl)c(Cl)c(=O)c1=2 the mutagenic call [13] was “inactive; negative”, the mutagenic call (Test System: AMES SALMONELLA TYPHIMURIUM, Strain/Indicator: TA97, Metabolic Activation: RAT, LIVER, S-9, PHENOBARBITAL AND 5,6-BENZOFLAVONE, Method: PREINCUBATION) was “active; positive” and the mutagenic call [2] was “inactive; negative”. For the same molecule, the mutagenic call (Test System: AMES SALMONELLA TYPHIMURIUM, Strain/Indicator: TA98, Metabolic Activation: RAT, LIVER, S-9, PHENOBARBITAL AND 5,6-BENZOFLAVONE, Method: PREINCUBATION) was “inactive; negative”, the mutagenic call [5] was “inactive; negative” and the mutagenic call (Test System: AMES SALMONELLA TYPHIMURIUM, Strain/Indicator: TA100, Metabolic Activation: RAT, LIVER, S-9, PHENOBARBITAL AND 5,6-BENZOFLAVONE, Method: PREINCUBATION) was “inactive; negative”. For the same molecule, the mutagenic call (Test System: AMES SALMONELLA TYPHIMURIUM, Strain/Indicator: TA102, Metabolic Activation: NONE, Method: PREINCUBATION) was “active; positive”, the mutagenic call (Test System: AMES SALMONELLA TYPHIMURIUM, Strain/Indicator: TA102, Metabolic Activation: RAT, LIVER, S-9, PHENOBARBITAL AND 5,6-BENZOFLAVONE, Method: PREINCUBATION) was “active; positive” and the mutagenic call (Test System: AMES SALMONELLA TYPHIMURIUM, Strain/Indicator: TA104, Metabolic Activation: NONE, Method: PREINCUBATION) was “active; positive”. For the same molecule, the mutagenic call (Test System: AMES SALMONELLA TYPHIMURIUM, Strain/Indicator: TA104, Metabolic Activation: RAT, LIVER, S-9, PHENOBARBITAL AND 5,6-BENZOFLAVONE, Method: PREINCUBATION) was “active; positive”, the mutagenic call [8] was “inactive; negative” and the mutagenic call (Test System: AMES SALMONELLA TYPHIMURIUM, Strain/Indicator: TA1535, Metabolic Activation: RAT, LIVER, S-9, PHENOBARBITAL AND 5,6-BENZOFLAVONE, Method: PREINCUBATION) was “inactive; negative”. The mutagenic call [11] was “inactive; negative”, the mutagenic call (Test System: AMES SALMONELLA TYPHIMURIUM, Strain/Indicator: TA1537, Metabolic Activation: RAT, LIVER, S-9, PHENOBARBITAL AND 5,6-BENZOFLAVONE, Method: PREINCUBATION) was “inactive; negative” and the mutagenic call (Test System: AMES SALMONELLA TYPHIMURIUM, Strain/Indicator: TA1538, Metabolic Activation: NONE, Method: PREINCUBATION) was “inactive; negative”. For the same molecule, the mutagenic call (Test System: AMES SALMONELLA TYPHIMURIUM, Strain/Indicator: TA1538, Metabolic Activation: RAT, LIVER, S-9, PHENOBARBITAL AND 5,6-BENZOFLAVONE, Method: PREINCUBATION) was “inactive; negative”, the mutagenic call (Test System: AMES SALMONELLA TYPHIMURIUM, Strain/Indicator: TA2637, Metabolic Activation: NONE, Method: PREINCUBATION) was “active; positive” and the mutagenic call (Test System: AMES SALMONELLA TYPHIMURIUM, Strain/Indicator: TA2637, Metabolic Activation: RAT, LIVER, S-9, PHENOBARBITAL AND 5,6-BENZOFLAVONE, Method: PREINCUBATION) was “active; positive”.

For O=C(O)CS, the mutagenic call (Test System: AMES SALMONELLA TYPHIMURIUM, Strain/Indicator: TA97, Metabolic Activation: HAMSTER, LIVER, S-9, AROCLOR 1254 (10 OR 30%), Method: PREINCUBATION) was “inactive; negative”, the mutagenic call [13] was “inactive; negative” and the mutagenic call (Test System: AMES SALMONELLA TYPHIMURIUM, Strain/Indicator: TA97, Metabolic Activation: RAT, LIVER, S-9, AROCLOR 1254 (10 OR 30%), Method: PREINCUBATION) was “inactive; negative”. For the same molecule, the mutagenic call [1] was “inactive; negative”, the mutagenic call (Test System: AMES SALMONELLA TYPHIMURIUM, Strain/Indicator: TA98, Metabolic Activation: HAMSTER, LIVER, S-9, AROCLOR 1254 (10 OR 30%), Method: PREINCUBATION) was “inactive; negative” and the mutagenic call [2] was “inactive; negative”. The mutagenic call [3] was “inactive; negative”, the mutagenic call (Test System: AMES SALMONELLA TYPHIMURIUM, Strain/Indicator: TA98, Metabolic Activation: RAT, LIVER, S-9, AROCLOR 1254 (10 OR 30%), Method: PREINCUBATION) was “inactive; negative” and the mutagenic call [4] was “inactive; negative”. The mutagenic call (Test System: AMES SALMONELLA TYPHIMURIUM, Strain/Indicator: TA100, Metabolic Activation: HAMSTER, LIVER, S-9, AROCLOR 1254 (10 OR 30%), Method: PREINCUBATION) was “inactive; negative”, the mutagenic call [5] was “inactive; negative” and the mutagenic call [6] was “inactive; negative”. The mutagenic call (Test System: AMES SALMONELLA TYPHIMURIUM, Strain/Indicator: TA100, Metabolic Activation: RAT, LIVER, S-9, AROCLOR 1254 (10 OR 30%), Method: PREINCUBATION) was “inactive; negative”, the mutagenic call [7] was “inactive; negative” and the mutagenic call (Test System: AMES SALMONELLA TYPHIMURIUM, Strain/Indicator: TA1535, Metabolic Activation: HAMSTER, LIVER, S-9, AROCLOR 1254 (10 OR 30%), Method: PREINCUBATION) was “inactive; negative”. For the same molecule, the mutagenic call [8] was “inactive; negative”, the mutagenic call [9] was “inactive; negative” and the mutagenic call (Test System: AMES SALMONELLA TYPHIMURIUM, Strain/Indicator: TA1535, Metabolic Activation: RAT, LIVER, S-9, AROCLOR 1254 (10 OR 30%), Method: PREINCUBATION) was “inactive; negative”. For the same molecule, the mutagenic call [10] was “inactive; negative”, the mutagenic call [11] was “inactive; negative” and the mutagenic call [12] was “inactive; negative”.
